# Experimental data as given in patent US20050153870A1, “Medicinal composition for diagnosis, prevention, or therapy of multiple risk factor syndrome” (priority 2002, published 2005).
# System: non-insulin dependent type II diabetes patients
# Assay: Clinical test II
# Assay type: in vivo, human
# Settings: for Body weight: week 0: 61.4 ± 10.21, in kg; for Serum neutral fat: week 0: 199.6 ± 88.29; for number of patients, Feeling of weariness Absent: before medication 0 of 25; for number of patients, Large amount of urine excretion Absent: before medication 0 of 30; for number of patients, Feeling of fatigue Absent: before medication 1 of 15; for number of patients, Throat dry Absent: before medication 1 of 30; for number of patients, Pain in the calf of leg Absent: before medication 4 of 16; for number of patients, Pain in the calf of leg Present: before medication 12 of 16; for number of patients, Feeling of fatigue Present: before medication 14 of 15; for number of patients, Feeling of weariness Present: before medication 25 of 25; for number of patients, Throat dry Present: before medication 29 of 30; for number of patients, Large amount of urine excretion Present: before medication 30 of 30
# Description: On the other hand, Clinical test II was performed in a group of 79 participants from non-insulin dependent diabetic patients.
# 79 non-insulin dependent type II diabetes patients whose blood sugar is well-controlled under dietary therapy (all were mongoloid Japanese) participated in Clinical test II. They were forbidden to use sulfonyl urea and biguanide agent which is a therapeutic agent for type II diabetes, and a fibrate series medicament, nicotinic acid, and probucol which is a serum fat decreasing agent; however use of an antihypertensive agent is not particularly prohibited. They participated on a voluntary basis after they signed informed consent for clinical test participation, which was proposed by a medical institution based on the Helsinki declaration. The participants consisted of 26 males and 53 females. An average age at the sign-up time was 58±9.9 years old (average value±standard deviation), ranging from 37 to 81 years old. The body weight of patients was divided by standard body weight obtained from the standard body-weight table issued by Meiji life Insurance Company. This index was 1.24±0.154 (average value±standard deviation) at the sign-up time, meaning that there are many obese persons. After 12 weeks, the body weight index decreased to 1.18±0.137(average value±standard deviation).
# The number of patients having normal blood pressure was 58 (of them, 31 patients were taking an antihypertensive agent).
# [1] = 30 cases with diabetic complications
structure (smiles),measurement,setting,value
COc1c(Cl)c(C)c(C=O)c(O)c1C/C=C(C)/C=C/[C@@]1(C)[C@H](C)CCC(=O)[C@@H]1C [4-O-methylascochlorin],"Fasting blood sugar, change vs week 0","6 mg/kg, week 4",−9.1% (n = 69)
same,"Serum neutral fat, change vs week 0","6 mg/kg, week 4",−15.2% (n = 62)
same,"Total serum cholesterol, change vs week 0","6 mg/kg, week 4",−14.3% (n = 60)
same,Body weight,"6 mg/kg, week 4",61.4 ± 9.63
same,Fasting blood sugar,"6 mg/kg, week 4, week 0: 162 ± 50.68",146.1 ± 41.06
same,Serum neutral fat,"6 mg/kg, week 4",173.5 ± 71.25
same,Total serum cholesterol,"6 mg/kg, week 4, week 0: 265.3 ± 69.75",238.7 ± 51.33
same,"Fasting blood sugar, change vs week 0","6 mg/kg, week 8",−8.9% (n = 74)
same,"Serum neutral fat, change vs week 0","6 mg/kg, week 8",−22.7% (n = 59)
same,"Total serum cholesterol, change vs week 0","6 mg/kg, week 8",−18.6% (n = 61)
same,Body weight,"6 mg/kg, week 8",60.7 ± 8.88
same,Fasting blood sugar,"6 mg/kg, week 8, week 0: 162 ± 50.68",147.9 ± 46.94
same,Serum neutral fat,"6 mg/kg, week 8",162.3 ± 65.89
same,Total serum cholesterol,"6 mg/kg, week 8, week 0: 265.3 ± 69.75",228.0 ± 43.65
same,"Fasting blood sugar, change vs week 0","6 mg/kg, week 12",−10.8% (n = 71)
same,"Serum neutral fat, change vs week 0","6 mg/kg, week 12",−21.8% (n = 69)
same,"Total serum cholesterol, change vs week 0","6 mg/kg, week 12",−19.7% (n = 69)
same,Body weight,"6 mg/kg, week 12",60.3 ± 9.07
same,Fasting blood sugar,"6 mg/kg, week 12, week 0: 162 ± 50.68",142.2 ± 44.03
same,Serum neutral fat,"6 mg/kg, week 12",158.8 ± 73.28
same,Total serum cholesterol,"6 mg/kg, week 12, week 0: 265.3 ± 69.75",220.04 ± 46.17
same,"number of patients, Feeling of weariness Absent",4th week,10
same,"number of patients, Large amount of urine excretion Absent",4th week,16
same,"number of patients, Feeling of fatigue Absent",4th week,5
same,"number of patients, Throat dry Absent",4th week,16
same,"number of patients, Pain in the calf of leg Absent",4th week,9
same,"number of patients, Pain in the calf of leg Present",4th week,7
same,"number of patients, Feeling of fatigue Present",4th week,10
same,"number of patients, Feeling of weariness Present",4th week,15
same,"number of patients, Throat dry Present",4th week,14
same,"number of patients, Large amount of urine excretion Present",4th week,14
same,symptoms associated with diabetic nephropathy such as throat dry and excessive urination,5 excluded cases of type II diabetic patients having 10-20 year's disease history,disappeared from all patients
same,"number of patients, Feeling of weariness Absent",8th week,19
same,"number of patients, Large amount of urine excretion Absent",8th week,22
same,"number of patients, Feeling of fatigue Absent",8th week,13
same,"number of patients, Throat dry Absent",8th week,23
same,"number of patients, Pain in the calf of leg Absent",8th week,10
same,"number of patients, Pain in the calf of leg Present",8th week,6
same,"number of patients, Feeling of fatigue Present",8th week,2
same,"number of patients, Feeling of weariness Present",8th week,6
same,"number of patients, Throat dry Present",8th week,7
same,"number of patients, Large amount of urine excretion Present",8th week,8
same,decrease of body weight compared to before medication,12-week medication,0.9 kg
same,"number of patients, Feeling of weariness Absent",12th week,24
same,"number of patients, Large amount of urine excretion Absent",12th week,29
same,"number of patients, Feeling of fatigue Absent",12th week,15
same,"number of patients, Throat dry Absent",12th week,28
same,"number of patients, Pain in the calf of leg Absent",12th week,14
same,"number of patients, Pain in the calf of leg Present",12th week,2
same,"number of patients, Feeling of fatigue Present",12th week,0
same,"number of patients, Feeling of weariness Present",12th week,1
same,"number of patients, Throat dry Present",12th week,2
same,"number of patients, Large amount of urine excretion Present",12th week,1
same,"feeling of fatigue, feeling of weariness, pain in the calf of leg (diabetic neuropathy)",[1],improved these symptoms with the passage of time
same,throat dry and excessive urination (symptoms of diabetic nephropathy),[1],significantly improved
same,"abnormality in the serum biological test, hematocyte test, and urine test","79 patients, 12-week medication",did not bring any abnormality
same,side effect,"79 patients, 12-week medication, 6 mg/kg, transient, disappeared within a week",Two cases of light eruption
same,"Fasting blood sugar, change vs before medication","High blood sugar group FBS > 130 mg/dl, 4th week",−11.3% (n = 45)
same,Fasting blood sugar,"High blood sugar group FBS > 130 mg/dl, 4th week, before medication 187.6 ± 40.39",167.3 ± 34.50 mg/dL
same,"Fasting blood sugar, change vs before medication","High blood sugar group FBS > 130 mg/dl, 8th week",−11.8% (n = 49)
same,Fasting blood sugar,"High blood sugar group FBS > 130 mg/dl, 8th week, before medication 187.6 ± 40.39",167.8 ± 44.82 mg/dL
same,"Fasting blood sugar, change vs before medication","High blood sugar group FBS > 130 mg/dl, 12th week",−13.8% (n = 46)
same,Fasting blood sugar,"High blood sugar group FBS > 130 mg/dl, 12th week, before medication 187.6 ± 40.39",161.7 ± 41.79 mg/dL
same,"Total serum cholesterol, change vs before medication","High cholesterol group 300-200 mg/dl, 4th week",−11.8% (n = 26)
same,Total serum cholesterol,"High cholesterol group 300-200 mg/dl, 4th week, before medication 267.6 ± 23.66",240.8 ± 38.92 mg/dL
same,"Total serum cholesterol, change vs before medication","High cholesterol group 300-200 mg/dl, 8th week",−13.9% (n = 27)
same,Total serum cholesterol,"High cholesterol group 300-200 mg/dl, 8th week, before medication 267.6 ± 23.66",232.4 ± 36.01 mg/dL
same,"Total serum cholesterol, change vs before medication","High cholesterol group 300-200 mg/dl, 12th week",−17.0% (n = 30)
same,Total serum cholesterol,"High cholesterol group 300-200 mg/dl, 12th week, before medication 267.6 ± 23.66",227.2 ± 45.36 mg/dL
same,"Fasting blood sugar, change vs before medication","Normal blood sugar group FBS < 130 mg/dl, 4th week",ns (n = 24)
same,Fasting blood sugar,"Normal blood sugar group FBS < 130 mg/dl, 4th week, before medication 108.8 ± 15.10",106.4 ± 13.48 mg/dL
same,"Fasting blood sugar, change vs before medication","Normal blood sugar group FBS < 130 mg/dl, 8th week",ns (n = 25)
